Earlier results in patent US20210161190A1, “CORE BODY TEMPERATURE REDUCING AGENT, FOOD PRODUCT, AND SLEEP IMPROVING AGENT” (JAPAN TOBACCO INC., priority 2018, published 2021).

Columns and labels:
[1] = system: mouse models of sleep disorder caused by imposed stress
[2] = intake of glycine
[3] = stress-imposed mouse models, continuous administration 350 to 3000 mg/kg of body weight per day

## O=C[C@H](O)[C@H](O)[C@H](O)CO [D-ribose]
[1]; mice without imposed stress
  circadian variation in core body temperature: hardly affected
[1]; [3]
  REM sleep: suppressed reduction in REM sleep
  non-REM sleep: promoted increases in non-REM sleep

## NCC(=O)O [glycine]
[2]
  core body temperature after intake: reduces core body temperature
  percentage of Non-REM sleep: improves the percentage of Non-REM sleep
